Assay results from patent US7452887B2, “Quinoline- and isoquinoline-based compounds exhibiting ATP-utilizing enzyme inhibitory activity, and compositions, and uses thereof” (Amphora Discovery Corporation, priority 2004, dated 2008).

target: MAPKAPK2 (Homo sapiens, UniProt P49137); assay: HTS ATP-utilizing enzyme assay, off-chip mobility-shift (Caliper HTS 250); format: biochemical; conditions: test compound 10 μM, kinase listed = active (greater than six-sigma from the mean activity of inactive compounds)
Source text: The following procedures describe the reagent and plate preparation for a HTS of an ATP-utilizing enzyme, such as a protein kinase, run in an off-chip mobility-shift assay format. The following provides an HTS protocol for running a protein kinase HTS screen on a Caliper HTS 250 microfluidics system. The following parameters are dependent on the protein kinase used and can be determined by one skilled in the art as part of a typical assay development process. For example, the peptide substrate used can be identified from the current literature, by screening a peptide library of potential protein kinase substrates, or by other applicable means accepted in the field.
The following table provides typical screen assay parameters appropriate for a Caliper HTS 250 microfluidics system.
The reagents and buffers listed in the following table are generally applicable for developing and running an HTS screen on a human protein kinase using the Caliper HTS 250 system.
The following reagents were prepared using the previously described buffers.
A 2× Master Buffer solution was prepared by combining 200 mL of 1 M HEPES, pH 7.5, 2 mL of 10% Triton X-100, 20 mL of 10% BSA, and 778 mL of H2O.
A TCB Buffer solution was prepared by combining 125 mL of 2× Master Buffer, 10 mL of 0.5 M EDTA, 6.25 mL of 4% coating reagent, 1.01 mL of 100% DMSO, and 107.74 mL H2O.
Assays to determine the kinase inhibitory activity of compounds of the present disclosure were performed using a Caliper HTS 250 microfluidics device, Greiner U-bottom assay plates, a Multidrop for transfer of reagents, and Biomek FX (AMNCBM03) software. Initially, 2.4 μL of a 1 mM solution of a test compound in 100% DMSO was added to a well of the Greiner U-bottom plate. A single Greiner U-bottom plate having 24×16 wells could include multiple test compounds. […] Using the Biomek FX, 10 μL of 0.5 M EDTA was added by the span-8 to wells, indicated as 100% Control and 2.4 μL of 100% DMSO was added by the span-8 to wells, indicated as 0% Control. […] The total reaction volume in each well was 25 μL, and the concentration of the test compound was 10 μM. The assay plate was incubated for 2.5 hrs at 20° C. to 22° C. […] The inhibition of the ATP-utilizing enzyme, such as a particular protein kinase, was determined by measuring the ratio of the peptide substrate to phosphorylated product for each well of the assay plate using the Caliper HTS 250 system.
The use of six-sigma statistical limits represents a conservative method for declaring potential hits among targets. The six-sigma activity, as well as the mean population activity, can be different for each target enzyme.

Chain of MAPKAPK2 (P49137 whole entry): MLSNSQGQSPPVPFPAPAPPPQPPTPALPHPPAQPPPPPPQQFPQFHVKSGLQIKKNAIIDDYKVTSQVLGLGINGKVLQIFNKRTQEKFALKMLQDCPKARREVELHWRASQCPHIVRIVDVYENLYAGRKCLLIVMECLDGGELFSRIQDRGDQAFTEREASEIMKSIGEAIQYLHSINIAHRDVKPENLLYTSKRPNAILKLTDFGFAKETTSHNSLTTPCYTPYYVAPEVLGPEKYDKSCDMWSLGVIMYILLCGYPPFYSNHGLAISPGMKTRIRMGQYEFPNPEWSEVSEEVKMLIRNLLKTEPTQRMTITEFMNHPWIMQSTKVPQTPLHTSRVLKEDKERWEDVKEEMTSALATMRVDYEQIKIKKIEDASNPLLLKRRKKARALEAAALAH

| Activity | SMILES |
| --- | --- |
| MAPKAPK2 | CN1CCN(c2ccc(Nc3ccnc4ccc(-c5ccc(C(F)(F)F)cc5C(F)(F)F)cc34)cc2)CC1 [6-(2,4-bis(trifluoromethyl)phenyl)-N-(4-(4-methylpiperazin-1-yl)phenyl)quinolin-4-amine] |
| MAPKAPK2 | CN1CCN(c2ccc(Nc3ccnc4ccc(-c5cc(Cl)ccc5Cl)cc34)cc2)CC1 [6-(2,5-dichlorophenyl)-N-(4-(4-methylpiperazin-1-yl)phenyl)quinolin-4-amine] |
| MAPKAPK2 | CN(C)Cc1ccccc1-c1ccc2nccc(Nc3ccc(N4CCN(C)CC4)cc3)c2c1 [6-(2-((dimethylamino)methyl)phenyl)-N-(4-(4-methylpiperazin-1-yl)phenyl)quinolin-4-amine] |
| MAPKAPK2 | CN(C)C1CCN(c2ccc(Nc3ccnc4ccc(-c5ccc(Cl)c(Cl)c5)cc34)cc2)C1 (centres unmarked) [6-(3,4-dichlorophenyl)-N-(4-(3-(dimethylamino)pyrrolidin-1-yl)phenyl)quinolin-4-amine] |
| MAPKAPK2 | CN1CCN(c2ccc(Nc3ccnc4ccc(-c5cc(C(F)(F)F)cc(C(F)(F)F)c5)cc34)cc2)CC1 [6-(3,5-bis(trifluoromethyl)phenyl)-N-(4-(4-methylpiperazin-1-yl)phenyl)quinolin-4-amine] |
| MAPKAPK2 | CN(C)C1CCN(c2ccc(Nc3ccnc4ccc(-c5cccc(OCc6ccccc6)c5)cc34)cc2)C1 (centres unmarked) [6-(3-(benzyloxy)phenyl)-N-(4-(3-(dimethylamino)pyrrolidin-1-yl)phenyl)quinolin-4-amine] |
| MAPKAPK2 | Cc1ccc(-c2ccc3nccc(Nc4ccc(N5CCC(N(C)C)C5)cc4)c3c2)cc1Cl (centres unmarked) [6-(3-chloro-4-methylphenyl)-N-(4-(3-(dimethylamino)pyrrolidin-1-yl)phenyl)quinolin-4-amine] |
| MAPKAPK2 | CN(C)C1CCN(c2ccc(Nc3ccnc4ccc(-c5cccc(Cl)c5)cc34)cc2)C1 (centres unmarked) [6-(3-chlorophenyl)-N-(4-(3-(dimethylamino)pyrrolidin-1-yl)phenyl)quinolin-4-amine] |
| MAPKAPK2 | CN(C)C1CCN(c2ccc(Nc3ccnc4ccc(-c5ccc6[nH]c(=O)sc6c5)cc34)cc2)C1 (centres unmarked) [6-(4-(4-(3-(dimethylamino)pyrrolidin-1-yl)phenylamino)quinolin-6-yl)benzo[d]thiazol-2(3H)-one] |
| MAPKAPK2 | CCN(CC)c1ccc(-c2ccc3nccc(Nc4ccc(N5CCC(N(C)C)C5)cc4)c3c2)cc1 (centres unmarked) [6-(4-(diethylamino)phenyl)-N-(4-(3-(dimethylamino)pyrrolidin-1-yl)phenyl)quinolin-4-amine] |
| MAPKAPK2 | CN(C)C1CCN(c2ccc(Nc3ccnc4ccc(-c5ccc(OC(F)F)cc5)cc34)cc2)C1 (centres unmarked) [6-(4-(difluoromethoxy)phenyl)-N-(4-(3-(dimethylamino)pyrrolidin-1-yl)phenyl)quinolin-4-amine] |
| MAPKAPK2 | CN(C)C1CCN(c2ccc(Nc3ccnc4ccc(-c5ccc(Cl)c(F)c5)cc34)cc2)C1 (centres unmarked) [6-(4-chloro-3-fluorophenyl)-N-(4-(3-(dimethylamino)pyrrolidin-1-yl)phenyl)quinolin-4-amine] |
| MAPKAPK2 | COc1cc(-c2ccc3nccc(Nc4ccc(N5CCC(N(C)C)C5)cc4)c3c2)ccc1Cl (centres unmarked) [6-(4-chloro-3-methoxyphenyl)-N-(4-(3-(dimethylamino)pyrrolidin-1-yl)phenyl)quinolin-4-amine] |
| MAPKAPK2 | Cc1cc(-c2ccc3nccc(Nc4ccc(N5CCC(N(C)C)C5)cc4)c3c2)ccc1Cl (centres unmarked) [6-(4-chloro-3-methylphenyl)-N-(4-(3-(dimethylamino)pyrrolidin-1-yl)phenyl)quinolin-4-amine] |
| MAPKAPK2 | CN1CCN(c2ccc(Oc3ccnc4ccc(-c5ccc(Cl)cc5)cc34)cc2)CC1 [6-(4-chlorophenyl)-4-(4-(4-methylpiperazin-1-yl)phenoxy)quinoline] |
| MAPKAPK2 | CCN(CC)C1CCN(c2ccc(Nc3ccnc4ccc(-c5ccc(Cl)cc5)cc34)cc2)C1 (centres unmarked) [6-(4-chlorophenyl)-N-(4-(3-(diethylamino)pyrrolidin-1-yl)phenyl)quinolin-4-amine] |
| MAPKAPK2 | CN(C)C1CCN(c2ccc(Nc3ccnc4ccc(-c5ccc(Cl)cc5)cc34)cc2)C1 (centres unmarked) [6-(4-chlorophenyl)-N-(4-(3-(dimethylamino)pyrrolidin-1-yl)phenyl)quinolin-4-amine] |
| MAPKAPK2 | CN1CCN(c2ccc(Nc3ccnc4ccc(-c5ccc(Cl)cc5)cc34)cn2)CC1 [6-(4-chlorophenyl)-N-(6-(4-methylpiperazin-1-yl)pyridin-3-yl)quinolin-4-amine] |
| MAPKAPK2 | CCCN(c1ccc(N2CCN(C)CC2)cc1)c1ccnc2ccc(-c3ccc(OC)cc3)cc12 [6-(4-methoxyphenyl)-N-(4-(4-methylpiperazin-1-yl)phenyl)-N-propylquinolin-4-amine] |
| MAPKAPK2 | CCCN1CCN(c2ccc(Nc3ccnc4ccc(-c5ccc(OC)cc5)cc34)cc2)CC1 [6-(4-methoxyphenyl)-N-(4-(4-propylpiperazin-1-yl)phenyl)quinolin-4-amine] |
| MAPKAPK2 | CN1CCN(c2ccc(Nc3ccnc4ccc(-c5ccc(Cl)s5)cc34)cc2)CC1 [6-(5-chlorothiophen-2-yl)-N-(4-(4-methylpiperazin-1-yl)phenyl)quinolin-4-amine] |
| MAPKAPK2 | Cc1cc(-c2ccc3nccc(Nc4ccc(N5CCC(N(C)C)C5)cc4)c3c2)cnc1Cl (centres unmarked) [6-(6-chloro-5-methylpyridin-3-yl)-N-(4-(3-(dimethylamino)pyrrolidin-1-yl)phenyl)quinolin-4-amine] |
| MAPKAPK2 | CN(C)C1CCN(c2ccc(Nc3ccnc4ccc(-c5ccc(Cl)nc5)cc34)cc2)C1 (centres unmarked) [6-(6-chloropyridin-3-yl)-N-(4-(3-(dimethylamino)pyrrolidin-1-yl)phenyl)quinolin-4-amine] |
| MAPKAPK2 | CN(C)C1CCN(c2ccc(Nc3ccnc4ccc(-c5csc6ccccc56)cc34)cc2)C1 (centres unmarked) [6-(benzo[b]thiophen-3-yl)-N-(4-(3-(dimethylamino)pyrrolidin-1-yl)phenyl)quinolin-4-amine] |
| MAPKAPK2 | CN(C)C1CCN(c2ccc(Nc3ccnc4ccc(-c5ccc6c(c5)OCO6)cc34)cc2)C1 (centres unmarked) [6-(benzo[d][1,3]dioxol-5-yl)-N-(4-(3-(dimethylamino)pyrrolidin-1-yl)phenyl)quinolin-4-amine] |
| MAPKAPK2 | CN(C)[C@@H]1CCN(c2ccc(Nc3ccnc4ccc(-c5ccc(C#N)cc5)cc34)cc2)C1 [(R)-4-(4-(4-(3-(dimethylamino)pyrrolidin-1-yl)phenylamino)quinolin-6-yl)benzonitrile] |
| MAPKAPK2 | CN(C)[C@@H]1CCN(c2ccc(Nc3ccnc4ccc(-c5ccc(Cl)cc5)cc34)cc2)C1 [(R)-6-(4-chlorophenyl)-N-(4-(3-(dimethylamino)pyrrolidin-1-yl)phenyl)quinolin-4-amine] |
| MAPKAPK2 | CN(C)[C@@H]1CCN(c2ccc(Nc3ccnc4ccc(-c5ccc6ccccc6c5)cc34)cc2)C1 [(R)-N-(4-(3-(dimethylamino)pyrrolidin-1-yl)phenyl)-6-(naphthalen-2-yl)quinolin-4-amine] |
| MAPKAPK2 | CN(C)[C@H]1CCN(c2ccc(Nc3ccnc4ccc(-c5ccc(C#N)cc5)cc34)cc2)C1 [(S)-4-(4-(4-(3-(dimethylamino)pyrrolidin-1-yl)phenylamino)quinolin-6-yl)benzonitrile] |
